# Columns and labels:
# rgRSV224 virus = assay: Antiviral activity: rgRSV224 (GFP) replication in HeLa cells; format: cell-based, respiratory syncytial virus (RSV); details: human respiratory syncytial virus, HeLa, 72 h, read-out: RSV HELA EC50 (μM), rgRSV224 virus (MOI=1), HeLa cells, GFP expression three days post-virus exposure
# in vitro = details: human, TOX HELA CC50 (μM)
# Experimental: Black 384-well clear-bottom microtiter plates (Corning, Amsterdam, The Netherlands) were filled via acoustic drop ejection using the echo liquid handler (Labcyte, Sunnyvale, Calif.). 200 nL of compound stock solutions (100% DMSO) were transferred to the assay plates. 9 serial 4-fold dilutions of compound were made, creating per quadrant the same compound concentration. The assay was initiated by adding 10 μL of culture medium to each well (RPMI medium without phenol red, 10% FBS-heat inactivated, 0.04% gentamycin (50 mg/mL). All addition steps are done by using a multidrop dispenser (Thermo Scientific, Erembodegem, Belgium). Next, rgRSV224 virus (MOI=1) diluted in culture medium was added to the plates. rgRSV224 virus is an engineered virus that includes an additional GFP gene (Hallak L K, Spillmann D, Collins P L, Peeples M E. Glycosaminoglycan sulfation requirements for respiratory syncytial virus infection; Journal of virology (2000), 74(22), 10508-13) and was in-licensed from the NIH (Bethesda, Md., USA). Finally, 20 μL of a HeLa cell suspension (3,000 cells/well) were plated. Medium, virus- and mock-infected controls were included in each test. The wells contain 0.05% DMSO per volume. Cells were incubated at 37° C. in a 5% CO2 atmosphere. Three days post-virus exposure, viral replication was quantified by measuring GFP expression in the cells by an in house developed MSM laser microscope (Tibotec, Beerse, Belgium). The EC50 was defined as the 50% inhibitory concentration for GFP expression. In parallel, compounds were incubated for three days in a set of white 384-well microtiter plates (Corning) and the cytotoxicity of compounds in HeLa cells was determined by measuring the ATP content of the cells using the ATPlite kit (Perkin Elmer, Zaventem, Belgium) according to the manufacturer's instructions. The CC50 was defined as the 50% concentration for cytotoxicity.
# [1] = Pharmacokinetics after single intravenous administration in the fasted male Beagle dog; format: in vivo; details: intravenous administration at 1 mg/kg in dogs, first 8 hours after administration
# Experimental: E.2 Pharmacokinetics after Single Intravenous Administration in the Fasted Male Beagle Dog
# The test compound was dissolved in a 20% (w/v) hydroxypropyl-β-cyclodextrin (HP-beta-CD) solution at a final concentration of 2 mg/mL for the intravenous formulation. NaOH was added to the formulations to facilitate dissolution and after total dissolution the pH was adjusted with HCl to 8.4. The intravenous (IV) formulation was made isotonic with mannitol. Prior to dosing, all formulations were stored at room temperature and protected from light. The IV formulation was dosed in a cephalic vein at 0.5 mL/kg to obtain a final dose of 1 mg/kg.
# Three male Beagle dogs, with a mean weight of 10.9±1.1 kg, were used. A complete concentration time profile was obtained from each individual animal. Prior to dosing, animals were fasted overnight. Their standard dry diet was returned to them at 2 hours post dose. Tap water was available ad libitum.
# From each individual animal, blood samples were taken at 7 and 20 minutes, 1, 2, 4, 7, 24 and 48 hours after intravenous dose administration. […] Plasma samples were analysed using a qualified research LC-MS/MS method. The key analytical performance (linearity, upper and lower limit of quantification, accuracy and precision) of the method was reported together with the plasma concentrations. The lower limit of quantification (LLOQ) was 10.0 ng/mL. […]
SMILES,EC50 (rgRSV224 virus),melting point,CC50 at 3 days (in vitro),plasma concentration profile [1]
"C[C@@H]1c2ccccc2CCN1C(=O)c1cc(C2CC2)n2nc(-c3cnc(N4CC[C@H](C(N)=O)C4)cc3F)cc2n1 [Compound 52, (3S)-1-(5-{7-Cyclopropyl-5-[(1R)-1-methyl-1,2,3,4-tetrahydroisoquinoline-2-carbonyl]-pyrazolo[1,5-a]pyrimidin-2-yl}-4-fluoropyridin-2-yl)pyrrolidine-3-carboxamide]",0.014 µM,246.17 °C,41.3 µM,–
"CNC(=O)[C@H]1CCN(c2cc(F)c(-c3cc4nc(C(=O)N5CCc6ccccc6[C@H]5C)cc(C5CC5)n4n3)cn2)C1 [Compound 53, (3S)-1-(5-{7-Cyclopropyl-5-[(1R)-1-methyl-1,2,3,4-tetrahydroisoquinoline-2-carbonyl]-pyrazolo[1,5-a]pyrimidin-2-yl}-4-fluoropyridin-2-yl)-N-methylpyrrolidine-3-carboxamide]",0.035 µM,228.33 °C,> 100 µM,–
"C[C@@H]1c2ccccc2CCN1C(=O)c1cc(C2CC2)n2nc(-c3cnc(N4CC[C@H](C(=O)NS(C)(=O)=O)C4)cc3F)cc2n1 [Compound 54, (3S)-1-(5-{7-Cyclopropyl-5-[(1R)-1-methyl-1,2,3,4-tetrahydroisoquinoline-2-carbonyl]-pyrazolo[1,5-a]pyrimidin-2-yl}-4-fluoropyridin-2-yl)-N-methanesulfonylpyrrolidine-3-carboxamide]",0.192 µM,254.46 °C,77.4 µM,–
"C[C@@H]1c2ccccc2CCN1C(=O)c1cc(C2CC2)n2nc(-c3cc(F)c(N4CC[C@H](C(N)=O)C4)cc3F)cc2n1 [Compound 55, (3S)-1-(4-{7-Cyclopropyl-5-[(1R)-1-methyl-1,2,3,4-tetrahydroisoquinoline-2-carbonyl]-pyrazolo[1,5-a]pyrimidin-2-yl}-2,5-difluorophenyl)pyrrolidine-3-carboxamide]",0.016 µM,253.3 °C,> 100 µM,–
"COc1ccc(-c2cc(C(=O)N3CCc4ccccc4[C@H]3C)nc3cc(-c4ccc(N5CC[C@H](C(N)=O)C5)cc4F)nn23)cc1 [Compound 57, (3S)-1-{3-Fluoro-4-[7-(4-methoxyphenyl)-5-[(1R)-1-methyl-1,2,3,4-tetrahydro-isoquinoline-2-carbonyl]pyrazolo[1,5-a]pyrimidin-2-yl]phenyl}pyrrolidine-3-carboxamide]",0.023 µM,216.34 °C,> 100 µM,–
"C[C@@H]1c2ccccc2CCN1C(=O)c1cc(-c2ccc(C#N)cc2)n2nc(-c3ccc(N4CC[C@H](C(N)=O)C4)cc3F)cc2n1 [Compound 62, (3S)-1-{4-[7-(4-Cyanophenyl)-5-[(1R)-1-methyl-1,2,3,4-tetrahydroisoquinoline-2-carbonyl]pyrazolo[1,5-a]pyrimidin-2-yl]-3-fluorophenyl}pyrrolidine-3-carboxamide]",0.043 µM,173.36 °C,> 100 µM,–
"C[C@@H]1c2ccccc2CCN1C(=O)c1cc(C2CC2)n2nc(-c3ccc(N4CC(CC(N)=O)C4)cc3F)cc2n1 [Compound 65, 2-[1-(4-{7-Cyclopropyl-5-[(1R)-1-methyl-1,2,3,4-tetrahydroisoquinoline-2-carbonyl]-pyrazolo[1,5-a]pyrimidin-2-yl}-3-fluorophenyl)azetidin-3-yl]acetamide]",0.048 µM,211.64 °C,39.1 µM,–
"CNC(=O)CC1CN(c2ccc(-c3cc4nc(C(=O)N5CCc6ccccc6[C@H]5C)cc(C5CC5)n4n3)c(F)c2)C1 [Compound 66, 2-[1-(4-{7-Cyclopropyl-5-[(1R)-1-methyl-1,2,3,4-tetrahydroisoquinoline-2-carbonyl]-pyrazolo[1,5-a]pyrimidin-2-yl}-3-fluorophenyl)azetidin-3-yl]-N-methylacetamide]",0.04 µM,143.13 °C,36.4 µM,–
"C[C@@H]1c2ccccc2CCN1C(=O)c1cc(C2CC2)n2nc(-c3ccc(N4CC(O)C4)cc3F)cc2n1 [Compound 67, 1-(4-{7-Cyclopropyl-5-[(1R)-1-methyl-1,2,3,4-tetrahydroisoquinoline-2-carbonyl]-pyrazolo[1,5-a]pyrimidin-2-yl}-3-fluorophenyl)azetidin-3-ol]",0.03 µM,205.81 °C,36.5 µM,–
"CNC(=O)C1CCN(c2ccc(-c3cc4nc(C(=O)N5CCc6ccccc6[C@H]5C)cc(C5CC5)n4n3)c(F)c2)CC1 [Compound 72, 1-(4-{7-Cyclopropyl-5-[(1R)-1-methyl-1,2,3,4-tetrahydroisoquinoline-2-carbonyl]-pyrazolo[1,5-a]pyrimidin-2-yl}-3-fluorophenyl)-N-methylpiperidine-4-carboxamide]",0.087 µM,252.4 °C,> 100 µM,–
"C[C@@H]1c2ccccc2CCN1C(=O)c1cc(C2CC2)n2nc(-c3ccc(N4CCC(O)CC4)cc3F)cc2n1 [Compound 74, 1-(4-{7-Cyclopropyl-5-[(1R)-1-methyl-1,2,3,4-tetrahydroisoquinoline-2-carbonyl]-pyrazolo[1,5-a]pyrimidin-2-yl}-3-fluorophenyl)piperidin-4-ol]",0.076 µM,144.01 °C,48.1 µM,–
"C[C@@H]1c2ccccc2CCN1C(=O)c1cc(C2CC2)n2nc(-c3ccc(N4CCCC(O)C4)cc3F)cc2n1 (stereo partly drawn) [Compound 75, 1-(4-{7-Cyclopropyl-5-[(1R)-1-methyl-1,2,3,4-tetrahydroisoquinoline-2-carbonyl]-pyrazolo[1,5-a]pyrimidin-2-yl}-3-fluorophenyl)piperidin-3-ol]",0.076 µM,197.51 °C,> 100 µM,–
"C[C@@H]1c2ccccc2CCN1C(=O)c1cc(C2CC2)n2nc(-c3ccc(N4CC[C@H](NC(=O)C(F)(F)F)C4)cc3F)cc2n1 [Compound 76, N-[(3S)-1-(4-{7-Cyclopropyl-5-[(1R)-1-methyl-1,2,3,4-tetrahydroisoquinoline-2-carbonyl]pyrazolo[1,5-a]pyrimidin-2-yl}-3-fluorophenyl)pyrrolidin-3-yl]-2,2,2-trifluoroacetamide]",0.246 µM,221.2 °C,> 100 µM,–
"C[C@@H]1c2ccccc2CCN1C(=O)c1cc(C2CC2)n2nc(-c3ccc(N4CC[C@@H](S(C)(=N)=O)C4)cc3F)cc2n1 (stereo partly drawn) [Compound 79, [(3R)-1-(4-{7-Cyclopropyl-5-[(1R)-1-methyl-1,2,3,4-tetrahydroisoquinoline-2-carbonyl]-pyrazolo[1,5-a]pyrimidin-2-yl}-3-fluorophenyl)pyrrolidin-3-yl](imino)methyl-λ^6-sulfanone]",0.476 µM,285.54 °C,13.3 µM,–
"C[C@@H]1c2ccccc2CCN1C(=O)c1cc(-c2ccccn2)n2nc(-c3ccc(N4CC[C@H](C(N)=O)C4)cc3F)cc2n1 [Compound 84, (3S)-1-(3-Fluoro-4-{5-[(1R)-1-methyl-1,2,3,4-tetrahydroisoquinoline-2-carbonyl]-7-(pyridin-2-yl)pyrazolo[1,5-a]pyrimidin-2-yl}phenyl)pyrrolidine-3-carboxamide]",0.006 µM,252.18 °C,19 µM,–
"COCCOc1cc(N2CC[C@H](C(N)=O)C2)nc(F)c1-c1cc2nc(C(=O)N3CCc4ccccc4[C@H]3C)cc(C3CC3)n2n1 [Compound 87, (3S)-1-(5-{7-Cyclopropyl-5-[(1R)-1-methyl-1,2,3,4-tetrahydroisoquinoline-2-carbonyl]-pyrazolo[1,5-a]pyrimidin-2-yl}-6-fluoro-4-(2-methoxyethoxy)pyridin-2-yl)pyrrolidine-3-carboxamide]",0.215 µM,152.28 °C,47.4 µM,–
"C[C@@H]1c2ccccc2CCN1C(=O)c1cc(C2CC2)n2nc(-c3ccc(N4CC(C(N)=O)C4)cc3F)cc2n1 [Compound 91, 1-(4-{7-Cyclopropyl-5-[(1R)-1-methyl-1,2,3,4-tetrahydroisoquinoline-2-carbonyl]pyrazolo[1,5-a]pyrimidin-2-yl}-3-fluorophenyl)azetidine-3-carboxamide]",0.036 µM,236.01 °C,28.3 µM,–
"C[C@@H]1c2ccccc2CCN1C(=O)c1cc(C2CC2)n2nc(-c3ccc(N4C[C@H](O)[C@@H](O)C4)cc3F)cc2n1 [Compound 102, (7-cyclopropyl-2-(4-((3S,4S)-3,4-dihydroxypyrrolidin-1-yl)-2-fluorophenyl)pyrazolo[1,5-a]pyrimidin-5-yl)((R)-1-methyl-3,4-dihydroisoquinolin-2(1H)-yl)methanone]",0.026 µM,–,44.4 µM,does not show this rapid decline

# From patent US11339165B2, “Pyrazolopyrimidines having activity against the respiratory syncytial virus (RSV)” (priority 2017, dated 2022)
